Assay results taken from article PMC11428593 (Antibiotics, 2024).
In brackets after ≈: the same amount, converted by molar mass.

What was measured:
[1] = tested on: S. aureus strain USA300LAC; experiment: Growth curve-based assay of exponentially growing cells; assay type: cell-based, Staphylococcus aureus
Experimental: Considering the divergent antimicrobial effects of our new compounds, we proceeded to assess the impact of JC-01-072 and JC-01-074 on the growth of exponentially growing USA300LAC cells. We performed growth-curve-based assays of the USA300LAC cultures that were either left untreated or treated with 4–16 μg/mL of the alkyl pyridinol compound once they reached the mid-log phase (OD600nm~0.2–0.3).
Figure 2 Impact of alkyl pyridinol exposure on exponentially growing S. aureus. An overnight culture of the S. aureus strain USA300LAC was diluted into fresh TSB and grown to mid-exponential phase (OD600nm = 0.2–0.3) prior to treatment with 4–16 µg/mL JC-01-072 (A) and JC-01-074 (B). Optical densities were measured at 600 nm at 10 min intervals for 16–18 h (n = 3, ±S.D.).
The overnight USA300LAC cultures were diluted into fresh TSB media to an O.D.600nm = 0.001 and incubated at 37 °C under shaking conditions (300 rpm) until an O.D.600nm of 0.2–0.3 (early log phase) was reached. The cultures were subsequently transferred to a 96-well polystyrene plate (Alkali Scientific, Fort Lauderdale, FL, USA), following which DMSO (control) or alkyl pyridine compounds were added at the indicated final concentrations. The cells were then incubated at 37 °C for 16 h at 300 rpm, and the O.D.600nm measurements were taken every 10 min for 16 h in a Tecan Infinite 200 plate reader (Tecan, Morgan Hill, CA, USA).

MRSA USA300LAC = experiment: MIC by broth microdilution (CLSI); assay type: cell-based, Staphylococcus aureus; settings: Staphylococcus aureus; MRSA USA300LAC; MHB, 37 °C, 16 h; read-out: MIC
P. aeruginosa ATCC 27853 = experiment: MIC by broth microdilution (CLSI); assay type: cell-based; settings: Pseudomonas aeruginosa, ATCC27853, MHB, 37 °C, 16 h
Source text: To assess the impact of the nitrogen position in our newly synthesized anaephene derivates, we analyzed their antimicrobial activities against various S. aureus strains, including ATCC 25,923 and the two methicillin-resistant S. aureus (MRSA) strains ATCC 33,591 and ATCC BAA-44. […] We determined the minimum inhibitory concentrations (MIC) of each of our compounds against the different bacterial strains by broth microdilution following the CLSI guidelines. As expected, all five compounds tested were completely ineffective against the Gram-negative P. aeruginosa strain ATCC 27,853 (Table 1).
The MIC values of the alkyl pyridinol derivatives against the S. aureus strain ATCC 25923, MRSA strains ATCC 33591, ATCC BAA-44, and USA300LAC, as well as the P. aeruginosa strain ATCC 27853, were determined by following the CLSI guidelines for the broth microdilution antibiotic sensitivity testing protocol. In brief, the overnight cultures were diluted into Mueller Hinton Broth (MHB) to a final inoculum concentration of 5 × 10^5 CFU/mL (O.D600nm = 0.00001) and dispensed into a 96-well polystyrene plate (Alkali Scientific, Fort Lauderdale, FL, USA). Alkyl pyridine compounds were diluted into inoculated MHB to the indicated concentrations from stock solutions that would allow for DMSO concentrations below 5%, resulting in a total volume of 200 μL per well. The plates were subsequently incubated at 37 °C for 16 h at 300 rpm. The MIC values, which are defined as the lowest compound concentration that inhibited growth, were determined from three biological replicates.

[2] = tested on: S. aureus strain USA300LAC biofilm; experiment: Inhibition of biofilm formation (crystal violet); assay type: cell-based, Staphylococcus aureus
Experimental: The establishment of a bacterial biofilm usually begins with pathogen attachment to biotic and abiotic surfaces, and S. aureus is notorious for its ability to form biofilms on surfaces, such as implants and catheters, which presents a unique treatment challenge.
Overnight cultures of S. aureus strain USA300LAC were diluted into fresh TSB to an OD600nm = 0.001 and incubated aerobically at 37 °C until the mid-log phase. (A) To detect effects on biofilm formation, cultures were diluted to an OD600nm = 0.0001 in the presence and absence of JC-01-074 and vancomycin at concentrations of 0.5–4× MIC, respectively. (B) To detect effects on biofilm eradication, cultures were diluted to an OD600nm = 0.0001 and incubated under static conditions for 24 h, after which planktonic cells were removed, and the preformed biofilms were washed twice with PBS. […] Biofilm mass was quantified after 20 h via crystal violet staining. One-way ANOVA, Dunnett’s multiple-comparison test (* p < 0.05, ** p < 0.01); (n = 3, ±S.D.).
The overnight USA300LAC cultures were diluted 1000-fold into the fresh TSB media and incubated under shaking conditions at 37 °C until the mid-log phase. The cultures were subsequently diluted to approximately 4 × 10^6 CFU/mL and dispended into 96-well polystyrene plates (Alkali Scientific, Fort Lauderdale, FL, USA) containing DMSO (control), vancomycin (0.5–4× MIC), or the indicated alkyl pyridinol compounds (0.5–4× MIC) and sealed with a breath-easy membrane (Fisherbrand, Waltham, MA, USA). The peripheral wells were filled with PBS to limit evaporation. The plates were incubated without agitation at 37 °C for 24 h, following which the planktonic cells were removed. The biofilms were washed twice with PBS, stained with 0.1% crystal violet (CV) for 15 min, and washed again twice with PBS to remove the unbound CV dye. CV bound to biofilm cells was extracted with 30% (v/v) glacial acetic acid, and the O.D.595nm was determined.

| Structure (SMILES) | delay of growth ([1]; 0.5× MIC, mid-log USA300LAC) | effect on growth at 1× MIC ([1]; 1× MIC, mid-log USA300LAC) | MIC (MRSA USA300LAC) | MIC (P. aeruginosa ATCC 27853) | reduction of biofilm formation ([2]; 0.5–4× MIC, dose-dependent) | inhibition of biofilm formation ([2]; up to 4× MIC, in words) | effect on growth of mid-log USA300LAC cells ([1]; 4–16 μg/mL, added at OD600nm ~0.2–0.3) |
| --- | --- | --- | --- | --- | --- | --- | --- |
| CCCCCCCCCC#Cc1cccc(O)n1 [JC-01-074] | 6 to 8 h | total growth arrest | 16 µg/mL (≈ 65.2 µM) | > 128 µg/mL | 60–70% | very potent in inhibiting their formation |  |
| CCCCCCCCCC#Cc1cncc(O)c1 [JC-01-072] |  |  | 8 µg/mL (≈ 32.6 µM) | > 128 µg/mL |  |  | little to no effects |
